Results as given in ChEMBL document CHEMBL1141211, “2-(Quinazolin-4-ylamino)-[1,4]benzoquinones as covalent-binding, irreversible inhibitors of the kinase domain of vascular endothelial growth factor receptor-2” (J Med Chem, 2005).

Assays:
[1] = biological target: T1, Vascular endothelial growth factor receptor 2 (Homo sapiens, UniProt P35968); test: Inhibition of poly(Glu4-Tyr)peptide phosphorylation by recombinant VEGFR2 at 10 uM ATP and in presence of 5% mouse plasma; type: cell-free
[2] = biological target: T1, Vascular endothelial growth factor receptor 2; test: Inhibition of poly(Glu4-Tyr)peptide phosphorylation by recombinant VEGFR2 at 10 uM ATP and in presence of 100 uM glutathione
[3] = biological target: T1, Vascular endothelial growth factor receptor 2; test: Inhibitory activity against VEGF stimulated autophosphorylation of VEGFR2 expressed in KDR15 cells; type: cell-based
[4] = Half life at 10 uM in the presence of 100 uM reduced glutathione in H2O-Acetonitrile (1:1); type: ADME; conditions: reduced glutathione solution in H2O-acetonitrile (1:1)
[5] = Half life at 1 uM in the presence of 100 uM reduced glutathione in H2O-Acetonitrile (1:1); type: ADME; conditions: reduced glutathione solution in H2O-acetonitrile (1:1)
[6] = biological target: T1, Vascular endothelial growth factor receptor 2; test: Inhibition of poly(Glu4-Tyr)peptide phosphorylation by recombinant VEGFR2 at 10 uM ATP

T1 sequence (P35968 whole entry): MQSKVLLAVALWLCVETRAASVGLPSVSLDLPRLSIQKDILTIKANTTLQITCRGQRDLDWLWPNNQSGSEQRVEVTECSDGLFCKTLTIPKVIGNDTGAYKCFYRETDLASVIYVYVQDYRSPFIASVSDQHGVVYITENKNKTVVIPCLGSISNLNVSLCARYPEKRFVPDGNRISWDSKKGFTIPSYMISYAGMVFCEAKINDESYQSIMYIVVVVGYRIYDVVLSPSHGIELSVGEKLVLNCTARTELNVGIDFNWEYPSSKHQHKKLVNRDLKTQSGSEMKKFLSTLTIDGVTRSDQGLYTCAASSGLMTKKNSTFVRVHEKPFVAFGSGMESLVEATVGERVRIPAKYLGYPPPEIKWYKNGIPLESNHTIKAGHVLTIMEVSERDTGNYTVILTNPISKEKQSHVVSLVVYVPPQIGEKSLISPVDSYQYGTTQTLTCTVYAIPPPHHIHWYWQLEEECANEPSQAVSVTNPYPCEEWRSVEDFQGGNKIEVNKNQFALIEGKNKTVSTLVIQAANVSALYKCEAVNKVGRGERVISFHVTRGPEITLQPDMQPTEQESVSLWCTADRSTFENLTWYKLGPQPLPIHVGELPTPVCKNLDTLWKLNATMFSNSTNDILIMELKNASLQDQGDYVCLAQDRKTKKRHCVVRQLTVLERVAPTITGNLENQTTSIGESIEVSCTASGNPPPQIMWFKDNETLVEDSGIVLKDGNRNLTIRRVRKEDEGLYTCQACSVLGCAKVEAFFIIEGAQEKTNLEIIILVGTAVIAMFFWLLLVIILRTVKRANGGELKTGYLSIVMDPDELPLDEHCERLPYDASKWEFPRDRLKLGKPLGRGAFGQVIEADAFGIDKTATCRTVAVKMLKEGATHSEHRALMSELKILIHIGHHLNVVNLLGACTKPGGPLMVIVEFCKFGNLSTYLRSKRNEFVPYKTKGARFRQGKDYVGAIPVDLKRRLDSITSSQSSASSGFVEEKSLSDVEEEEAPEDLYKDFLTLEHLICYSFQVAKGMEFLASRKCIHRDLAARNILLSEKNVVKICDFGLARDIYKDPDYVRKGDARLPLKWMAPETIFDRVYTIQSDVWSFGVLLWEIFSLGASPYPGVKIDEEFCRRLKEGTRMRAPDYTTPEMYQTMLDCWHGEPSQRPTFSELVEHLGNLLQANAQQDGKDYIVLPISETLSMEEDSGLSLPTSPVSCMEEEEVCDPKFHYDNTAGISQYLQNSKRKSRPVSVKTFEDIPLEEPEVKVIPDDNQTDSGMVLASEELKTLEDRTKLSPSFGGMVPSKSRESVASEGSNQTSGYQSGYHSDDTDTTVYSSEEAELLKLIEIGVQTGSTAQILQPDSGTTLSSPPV

Row | IC50 [1] [nM] | IC50 [2] [nM] | IC50 [3] [nM] | half-life at 10 µM [4] [h] | half-life at 1 µM [5] [h] | IC50 [6] [nM] | SMILES
1 |  |  |  | < 0.02 | < 0.02 |  | COCCOc1cc2ncnc(NC3=CC(=O)C(Oc4ccccc4)=CC3=O)c2cc1OC
2 |  |  |  | < 0.02 | < 0.02 |  | COCCOc1cc2ncnc(NC3=CC(=O)C(Oc4ccc(-n5ccnc5)cc4)=CC3=O)c2cc1OC
3 | 366 | 50.3 |  | 54 | 55 | 43 | COCCOc1cc2ncnc(NC3=CC(=O)C(OCc4ccccc4)=CC3=O)c2cc1OC
4 |  |  |  | 295 | 341 |  | COCCOc1cc2ncnc(NC3=CC(=O)C(N(C)c4ccccc4)=CC3=O)c2cc1OC
5 |  |  |  | 80 | 68 |  | COCCOc1cc2ncnc(NC3=CC(=O)C(OC)=CC3=O)c2cc1OC
6 | 256 | 41.9 |  |  |  | 31.2 | COCCOc1cc2ncnc(NC3=CC(=O)C(OCc4cccc(F)c4)=CC3=O)c2cc1OC

Second part, the compound before the results:

Row | SMILES | IC50 [1] [nM] | IC50 [2] [nM] | IC50 [3] [nM] | half-life at 10 µM [4] [h] | half-life at 1 µM [5] [h] | IC50 [6] [nM]
7 | CCOC1=CC(=O)C(Nc2ncnc3cc(OCCOC)c(OC)cc23)=CC1=O | > 1000 | > 1000 | > 1000 | 72 | 62 | > 1000
8 | COCCOc1cc2ncnc(NC3=CC(=O)C(Cl)=CC3=O)c2cc1OC |  |  |  | < 0.02 | < 0.02 | 
9 | COCCOc1cc2ncnc(NC3=CC(=O)C(N(C)C)=CC3=O)c2cc1OC |  |  |  | 601 | 160 | 
10 | COCCOc1cc2ncnc(NC3=CC(=O)C(OC(C)C)=CC3=O)c2cc1OC |  |  |  | 227 | 213 | 
11 | COCCOc1cc2ncnc(NC3=CC(=O)C(N4CCN(Cc5ccccc5)CC4)=CC3=O)c2cc1OC |  |  |  | 85 | 73 | 
12 | COCCOc1cc2ncnc(NC3=CC(=O)C(OC)=C(Cl)C3=O)c2cc1OC |  |  |  | 0.5 | < 0.5 | 
13 | COCCOc1cc2ncnc(NC3=CC(=O)C(OC(CF)CF)=CC3=O)c2cc1OC |  |  |  | 15 | 11 | 
14 | COCCOc1cc2ncnc(NC3=C(Sc4ccccn4)C(=O)C=C(OC)C3=O)c2cc1OC | > 1000 | > 1000 |  |  |  | > 1000
15 | COCCOc1cc2ncnc(NC3=CC(=O)C(SC)=CC3=O)c2cc1OC |  |  |  | 3 | 2 | 
16 | COCCOc1cc2ncnc(NC3=CC(=O)C(NCC(C)O)=CC3=O)c2cc1OC (configuration not stated) | > 1000 | > 1000 |  |  |  | > 1000
